Assay results from PubChem BioAssay AID463074 (Broad Institute, 2010).
Calls of active or inactive are those of the source.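 The calls were made as follows: active = AC50 no more than tenfold above the top dose tested, or full inhibition at every dose with a flat fit (cut at about 19 µM in these data); inconclusive = flat curve fit with inhibition between 30% and 70%, or poor fit; inactive = AC50 more than tenfold above the top dose tested.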

Test system: HMLE_sh_eGFP viability, CellTiter-Glo luminescence, 72 h
Assay: viability loss of HMLE_sh_eGFP cells – cell-based, luminescence, counter-screen for HMLE_sh_ECad selective toxicity project, dose response (AID 463074);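 also: counterscreen control line to flag general toxicity for the HMLE_sh_ECad screen; potency for loss of viability as luminescence drops below DMSO wells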

| SMILES | AC50 |
| --- | --- |
| CCCCn1c(-c2cccc(C)c2)nc2cc3[nH]c(=O)c(C(C)C)nc3cc21 | 4.64 µM |
| OC(CNCC(c1ccc(Cl)cc1Cl)c1c[nH]c2ccccc12)c1ccccc1 (configuration not stated) | 2.88 µM |
| CC(C)(C)c1ccc(Cn2nnc3c(=O)[nH]c(C4CCCN(C(=O)c5cccs5)C4)nc32)cc1 (configuration not stated) | 14.6 µM |
| O=c1[nH]c(=O)n(CCC2=CCCCC2)c(O)c1/C=N/Nc1ccccc1 | 3.76 µM |
| O=C(N/C=N/OCc1ccc(Cl)cc1Cl)NOCc1ncc(C(F)(F)F)cc1Cl | 5.04 µM |
| CN(CCO)c1cc(Sc2nc3ccccc3s2)c2nonc2c1[N+](=O)[O-] | 2.49 µM |
| CCc1ccc(N=Nc2ccc(O)c3[nH]cnc23)cc1 | 2.06 µM |
| C=CCn1c(=O)c(C(=O)NCCc2ccccc2)c(O)c2ccccc21 | 5.77 µM |
| O=S(=O)(Nc1ccc(O)c2ccccc12)c1ccc(OC(F)(F)F)cc1 | 12.5 µM |
| CCOc1cccc(/C=N/NC(=O)c2cc(C3CC3)[nH]n2)c1O | 5.72 µM |
| Cc1sc2ncnc(N3CCN(CCOc4ccc(Cl)cc4)CC3)c2c1C | 7.16 µM |
| CCCC(=O)NC(c1ccc2c(c1)OCO2)c1cc(Cl)c2cccnc2c1O (configuration not stated) | 3.1 µM |
| OC(CNCCc1ccc(C(F)(F)F)cc1)COc1ccc2ccccc2c1 (configuration not stated) | 4.98 µM |
| O=C(Oc1ccc(-c2nc(-c3ccccn3)no2)cc1)c1ccccc1 | 1.63 µM |
| CN1CCN(Cc2nc3ccccc3c(=O)n2Cc2nc(-c3ccc4ccccc4c3)cs2)CC1 | 3.59 µM |
| Cc1ccc(C2(c3noc(CN4CCC(c5ccncc5)CC4)n3)CCCC2)cc1 | 2.32 µM |
| c1ccc(N(c2ccccc2)c2nc(N3CCCC3)nc(-n3ccnc3)n2)cc1 | 6.28 µM |
| COc1ccc(-n2cc(-c3ccccc3)c3c(N4CCOCC4)ncnc32)cc1 | 6.91 µM |
| COc1ccc(C2NCCc3c2[nH]c2ccccc32)cc1CSc1nc2ccccc2s1 (configuration not stated) | 4.98 µM |
| O=C(COc1ccc(-c2ccccc2)cc1)N/N=C/c1cc(O)ccc1Br | 5.68 µM |
| CCOc1ccc(/C=N/NC(=O)COc2ccccc2-c2ccccc2)cc1 | 6.53 µM |
| Cc1cc(C)nc(SCc2ccc(C(=O)N/N=C/c3cccc(O)c3O)cc2)n1 | 3.71 µM |

| SMILES | AC50 |
| --- | --- |
| COc1cc(N/N=C(\C)c2ccc(O)c(C)c2)nc(-c2ccccc2)n1 | 4.75 µM |
| CCCCN(CCCC)CCC(O)c1cc2c(Cl)cc(Cl)cc2c2cc(C(F)(F)F)ccc12 (configuration not stated) | 7.54 µM |
| O=C(Cc1ccc(Cl)cc1)Nc1ccc2c(c1)C(=O)NC2=O | > 19.5 µM (inactive) |
| O=C(NCc1cccnc1)/C(=C/c1ccc(-c2cccc(Cl)c2)o1)S(=O)(=O)c1ccccc1 | 2.66 µM |
| O=C(Nc1ccccc1)Nc1ccc(O)c2ccccc12 | 3.94 µM |
| CC1CCCCC1NC(=O)/C(C#N)=C/c1ccccc1F (configuration not stated) | 7.72 µM |
| CCCOc1c(OC)cccc1C1CC(=O)Nc2cc3c(cc21)OCCO3 (configuration not stated) | 2.95 µM |
| O=C1CC(c2ccc(F)cc2)CC2=C1C=Nc1ccccc1N2 (configuration not stated) | > 19.5 µM (inactive) |
| COc1ccc(NC(=O)c2ccc(COc3ccccc3Br)o2)c(OC)c1 | 3.67 µM |
| Clc1ccc(CSc2nnnn2-c2ccc3c(c2)OCO3)c(Cl)c1 | 10.6 µM |
| CN(C)CCNC(=O)COc1ccc(C23CC4CC(CC(C4)C2)C3)cc1 | 4.09 µM |
| O=C1c2ccccc2C2=Nc3ccccc3SC(c3ccc(Cl)cc3)C12 (configuration not stated) | 10.6 µM |
| N#Cc1ccc(Nc2nc(-c3ccc(O)cc3O)cs2)cc1C(F)(F)F | 3.87 µM |
| Cc1ccc(COc2ccccc2-c2cc(C(=O)N/N=C/c3cccnc3)[nH]n2)cc1 | 12.6 µM |
| O=C(Nc1ccc(Cl)c(Cl)c1)Nc1ccccc1NS(=O)(=O)c1cccs1 | 13.6 µM |
| COc1cccc(-c2sc3ccccc3c2-c2ccc(OCCN3CCCC3)cc2)c1 | 2.81 µM |
| Nc1c(C(=O)Nc2ccccc2)c2nc3ccccc3nc2n1CCCN1CCOCC1 | 6.77 µM |
| CCN(CC(=O)NC1CCCCC1)S(=O)(=O)c1ccc(Cl)cc1 | > 19.5 µM (inactive) |
| O=C(Cc1ccc(Cl)c(Cl)c1)Nc1ccc(SC(F)F)cc1 | 3.93 µM |
| COc1cccc(NP(=O)(Oc2ccccc2)Oc2ccccc2)c1 | 15.1 µM |
| C/C(=N\OCc1nc2ccccc2c(=O)n1/N=C/c1cc([N+](=O)[O-])ccc1O)c1ccccc1 | 16 µM |
| Cc1cc(N/N=C/c2ccccc2Cl)nc(NCc2ccccc2)n1 | 4.04 µM |

| SMILES | AC50 |
| --- | --- |
| CC1(C)CC[C@]2(CO)CC[C@]3(C)C(=CCC4[C@@]5(C)CC[C@H](O)[C@@](C)(CO)C5CC[C@]43C)[C@@H]2C1 (some centres not stated) | 3.97 µM |
| COc1cc(S(=O)(=O)N2CCCCCC2)c(OC)cc1Br | 2.55 µM |
| Cc1ccc(Cl)cc1N1CCN(CC(=O)NC2CCCc3ccccc32)CC1 (configuration not stated) | 6.66 µM |
| CC(=O)OCCCNc1cc(Sc2ccc(Cl)cc2)c2nonc2c1[N+](=O)[O-] | 4.28 µM |
| O=C(C#Cc1ccccc1)Nc1cccc(F)c1 | 3.43 µM |
| O=C(NC(NC(=S)Nc1ccccc1)C(Cl)(Cl)Cl)c1cccc(Cl)c1 (configuration not stated) | 5.36 µM |
| COc1cc(Cl)c(NC2=CC(=O)C(=O)c3ccccc32)c(OC)c1 | 3.57 µM |
| COc1ccc(CN(CCC(c2ccccc2)c2ccc(OC(C)C)cc2)C(=O)CCl)cc1OC (configuration not stated) | 1.67 µM |
| COc1ccc(CN2CCC(N(CCc3ccccc3)Cc3ccccc3)CC2)c(OC)c1 | 5.43 µM |
| C/C(=N\NC(=O)c1cccc(Cl)c1)C1C(=O)c2ccccc2C1=O | 20.1 µM |
| O=C(NNC1=C(C(=O)C(F)(F)F)CCC1)c1ccc(Cl)cc1 | 4.25 µM |
| CC(C)(c1ccccc1)c1ccc(OCCN2CCCC2)cc1 | 0.903 µM |
| COc1cc(NS(C)(=O)=O)ccc1Nc1c2ccccc2nc2ccccc12 | 2.11 µM |
| Cc1oc2c(F)c(F)c(F)c(F)c2c1S(=O)(=O)Nc1cccc(C(F)(F)F)c1 | 4.95 µM |
| Cc1nn(CCc2nn[nH]n2)c2nc(-c3ccc(C4CCCCC4)cc3)cc(C(F)(F)F)c12 | 2.7 µM |
| N#CC1=C(N)N2C(=C(C#N)C1c1ccc(Br)cc1)Nc1ccccc12 (configuration not stated) | 2.99 µM |
| CCCOc1c(Cl)cc(C(=O)Nc2ccc3c(c2)OCO3)cc1OCC | 5.39 µM |
| CC(=O)Oc1ccc2c(=O)c(-c3nc4ccccc4s3)coc2c1 | 9.34 µM |
| Cc1ccc(NC(=O)/C=C/c2ccc([N+](=O)[O-])s2)c(C)c1 | 2.3 µM |
| O=C(Nc1ccc(N2CCN(Cc3ccccc3F)CC2)cc1)c1ccc([N+](=O)[O-])o1 | 1.94 µM |
| ClC1=C(Cl)C2(Cl)C3C(Cl)C=CC3C1(Cl)C2(Cl)Cl (configuration not stated) | 6.29 µM |
| Cc1ccc(NC(=O)NCC2CCN(Cc3cccc(Cl)c3)CC2)cc1Cl | 6.9 µM |

| SMILES | AC50 |
| --- | --- |
| Cc1ccc(C)c(NC(=O)CSc2nc3nc(-c4cccs4)cc(C(F)(F)F)c3c(=O)[nH]2)c1 | 4.39 µM |
| COc1ccc(NS(=O)(=O)c2ccc3nc(COc4cccc5ccccc45)[nH]c3c2)cc1 | 4.75 µM |
| COc1ccc(N/N=C(/C(C)=O)N2CCCc3ccccc32)cc1 | 13.2 µM |
| O=C(CS(=O)c1ccc(C(F)(F)F)cc1[N+](=O)[O-])Oc1ccccc1 (configuration not stated) | 5.22 µM |
| CCCCCCSc1cccc(-c2nc3ccc(Cl)cn3c2NCc2ccccc2)c1 | 3.12 µM |
| COc1cccc(/C=C/C(=O)c2ccc(NS(=O)(=O)c3ccc(C)cc3)cc2)c1 | 3.22 µM |
| CN(C)S(=O)(=O)Oc1cccc(C(=O)Nc2ccc(Cl)c(Cl)c2)c1 | 6.22 µM |
| CCCCCCSc1cc(-c2nc3cnccn3c2NCCCC)ccc1OC | 6.71 µM |
| Oc1ccc(N=Nc2nc(-c3ccccc3)c(-c3ccccc3)[nH]2)cc1 | 4.53 µM |
| C[C@]12CC[C@H](O)C[C@H]1CC[C@@H]1C2CC[C@]2(C)[C@@H](C3=CC(=O)OC3)[C@@H](O)C[C@]12O (some centres not stated) | 1.55 µM |
| COc1cccc(-c2sc3ccc(OC)cc3c2C#CC2(O)CCCCC2)c1 | 7.25 µM |
| O=[N+]([O-])c1ccc(S(=O)(=O)CC(CN2CCCCC2)N2CCCCC2)cc1 (configuration not stated) | 5.37 µM |
| Cc1cccc(N(C)C(=O)c2cc3c(=O)[nH]c4ccc(C)cc4c3s2)c1 | 2.52 µM |
| Cc1nc(N2CCCCC2)c2c(C)c(C(=O)Nc3ccccc3C(F)(F)F)sc2n1 | 1.85 µM |
| c1ccc(NNC2=NCCCCC2)cc1 | 2.89 µM |
| CN(C)/N=C/C=C1\CCC/C(=C\c2ccc(F)c(F)c2)C1=O | 10.5 µM |
| O=C(Nc1ccccc1N1CCCCC1)c1ccc(Cl)c([N+](=O)[O-])c1 | 3.24 µM |
| CCCn1c(=O)c(C(=O)NNS(=O)(=O)c2ccc(Cl)cc2)c(O)c2ccccc21 | 2.03 µM |
| COc1ccc2c(c1)CCc1c(C(=O)N3CC4(C)CC3CC(C)(C)C4)noc1-2 (configuration not stated) | < 0.16 µM |
| CC1(C)C(=O)N(c2ccccc2)C1c1ccccc1O (configuration not stated) | 3.25 µM |
| CC(/C=N/n1c(C2CCCCC2)n[nH]c1=S)=C\c1ccccc1 | 4.88 µM |
| O=C(Cn1c2ccccc2c(=O)c2ccccc21)N/N=C/c1ccc(N2CCCC2)c([N+](=O)[O-])c1 | 2.43 µM |

| SMILES | AC50 |
| --- | --- |
| C=Cn1ccnc1P(=S)(c1ccc2c(c1)c1ccccc1n2CC)c1nccn1C=C | 2.18 µM |
| Cc1ccc(/C=C\c2nccc3c2[nH]c2ccccc23)cc1 | 13.2 µM |
| COC(=O)c1ccc(CN(c2ccc(C(=O)O)c(O)c2)S(=O)(=O)c2ccc(Cl)c([N+](=O)[O-])c2)cc1 | 3.5 µM |
| CC(=O)N(C)c1ccc(OCC(O)Cn2c3ccc(Cl)cc3c3cc(Cl)ccc32)cc1 (configuration not stated) | 1.65 µM |
| Cc1cccc(N2CCN(C(=S)Nc3ccc4nc(N5CCN(C)CC5)cc(C)c4c3)CC2C)c1 (configuration not stated) | 7.35 µM |
| COc1cc(CN2CCN(c3cccc(Cl)c3)CC2)cc(OC)c1OC | 2.58 µM |
| CN1CCN(c2ccc([N+](=O)[O-])c(NCc3ccco3)c2)CC1 | 12.9 µM |
| O=C1NC(=O)N(Cc2ccccc2)C(=O)/C1=C/C=C/c1ccco1 | 2.04 µM |
| CCN1CCN(c2cc(C)c3cc(NC(=S)N4CCN(c5ccc(F)cc5)CC4)ccc3n2)CC1 | 4.67 µM |
| COc1ccc(-c2oc3ccc(N4CCOCC4)cc3c2C#CCO)cc1 | 10.4 µM |
| Cc1ccc(-c2cc(C(=O)N3CCN(c4ccc(O)cc4)CC3)c3ccccc3n2)cc1 | 8.38 µM |
| O=c1c2cc(NC(=S)NCCCN3CCC(Cc4ccccc4)CC3)ccc2nc2n1CCCCC2 | 6.21 µM |
| O=C(Nc1nnc(-c2ccc(Cl)cc2)o1)c1nc2ccccc2s1 | 5.29 µM |
| Cc1nc(NCc2ccco2)c2c(C)c(C)sc2n1 | 5.22 µM |
| Clc1ccc(-c2ccc(/C=N/Nc3cc(N4CCOCC4)nc(N4CCOCC4)n3)o2)cc1 | 4.24 µM |
| CC(Nc1nc(-c2ccccc2)nc2ccccc12)c1ccccc1 (configuration not stated) | 5.38 µM |
| Cc1ccc(C(=O)C(C(=O)/C=C/c2ccccc2)=C2SCCCS2)cc1 | 1.56 µM |
| CC1=C(C(=O)OC2CCCCCCC2)C(c2cc3c(cc2Br)OCO3)CC(=O)N1 (configuration not stated) | 2.57 µM |
| CC(O)CC(C(=O)NNc1ccccc1)C(=O)NNc1ccccc1 (configuration not stated) | 1.87 µM |
